Holding throughout (format): biochemical
The target in assay [1] is T1, Recombinant human TYK2 catalytic domain (amino acids 871-1187) (Homo sapiens, UniProt P29597).
T1 construct: catalytic domain (amino acids 871-1187)
T1 sequence (P29597 871-1187): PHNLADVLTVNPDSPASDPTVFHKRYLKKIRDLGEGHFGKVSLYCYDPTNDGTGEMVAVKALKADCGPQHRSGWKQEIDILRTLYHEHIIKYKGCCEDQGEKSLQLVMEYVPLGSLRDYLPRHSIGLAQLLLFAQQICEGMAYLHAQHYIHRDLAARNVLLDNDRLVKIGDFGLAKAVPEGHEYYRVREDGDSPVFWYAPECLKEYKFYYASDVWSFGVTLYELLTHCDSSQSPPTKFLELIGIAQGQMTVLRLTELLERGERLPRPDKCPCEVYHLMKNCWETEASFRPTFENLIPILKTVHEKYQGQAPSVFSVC
Nature of the assay: TYK2 radioactive assay polyGT substrate. Note: 0.1 µM ATP. An outline of the steps:
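Reaction at 30° C. for 120 min, ended with 150 mM phosphoric acid, washed, counted; percent inhibition scaled between vehicle and 10 μM staurosporine cpm.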

Assay [2] has as its target T2, Recombinant human JAK2 (catalytic domain, amino acids 808-1132) (Homo sapiens, UniProt O60674).
T2 construct: catalytic domain, amino acids 808-1132
The experiment in a line: JAK2 inhibition assay. Note: 0.7 µM ATP. Conditions: read-out: JAK2 potency IC50. On the procedure:
After 60 min at room temperature, reactions are stopped by adding 20 μL/well of detection mixture (1× detection buffer (Perkin Elmer, catalog number CR97-100) with 0.5 nM Europium-anti-phosphotyrosine (PT66) (Perkin Elmer, catalog number AD0068/AD0069) and 10 mM EDTA). […] Kinase activity is calculated by subtracting the ratio obtained in the presence of a positive control inhibitor (1 μM staurosporine) from the ratio obtained in the presence of vehicle. The ability of a test compound to inhibit this activity (or percentage inhibition) is determined as:
(§1) [formula] wherein Fluorescent ratio test compound=ratio RFU665/RFU615*1000 determined for sample with test compound present Fluorescent ratio control=ratio RFU665/RFU615*1000 determined for sample with positive control inhibitor Fluorescent ratio vehicle=ratio RFU665/RFU615*1000 determined in the presence of vehicle
Dose dilution series are prepared for compound enabling the testing of dose-response effects in the JAK2 assay and the calculation of the IC50 for the compound. Each compound is routinely tested at concentration of 20 μM followed by a 1/5 serial dilution, 10 points in a final concentration of 1% DMSO. […] The data are expressed as the average IC50 from the assays.

For assay [3], the target named is Recombinant human JAK3 catalytic domain (amino acids 781-1124) (Homo sapiens, UniProt P52333). The experiment in a line: JAK3 inhibition assay. On the procedure:
After 45 min at 30° C., reactions are stopped by adding 25 μL/well of 150 mM phosphoric acid. […] Plates are washed 6 times with 300 μL per well of a 75 mM phosphoric acid solution and the bottom of the plates is sealed. […] Kinase activity is calculated by subtracting counts per min (cpm) obtained in the presence of a positive control inhibitor (10 μM staurosporine) from cpm obtained in the presence of vehicle. The ability of a test compound to inhibit this activity (or percentage inhibition) is determined as: […]
cpm test compound=cpm determined for sample with test compound present cpm control=cpm determined for sample with positive control inhibitor cpm vehicle=cpm determined in the presence of vehicle
Dose dilution series were prepared for the compounds enabling the testing of dose-response effects in the JAK3 assay and the calculation of the IC50 for each compound. Each compound is routinely tested at concentration of 20 μM followed by a 1/5 serial dilution, 10 points in a final concentration of 1% DMSO.

Assay [4] concerns the target T3, Recombinant human JAK1 (catalytic domain, amino acids 866-1154) (Homo sapiens, UniProt P23458).
T3 construct: catalytic domain, amino acids 866-1154
Nature of the assay: JAK1 inhibition assay. Conditions: read-out: JAK1 potency IC50. On the procedure:
After 60 min at room temperature, reactions are stopped by adding 20 μL/well of detection mixture (1× detection buffer (Perkin Elmer, catalog number CR97-100), 0.5 nM Europium-anti-phosphotyrosine (PT66) (Perkin Elmer, catalog number AD0068/AD0069), 10 mM EDTA). […] Kinase activity is calculated by subtracting the ratio obtained in the presence of a positive control inhibitor (1 μM staurosporine) from the ratio obtained in the presence of vehicle. The ability of a test compound to inhibit this activity (or percentage inhibition) is determined as:
as §1
Dose dilution series were prepared for the compounds enabling the testing of dose-response effects in the JAK1 assay and the calculation of the IC50 for the compound. Each compound is routinely tested at concentration of 20 μM followed by a 1/5 serial dilution, 10 points in a final concentration of 1% DMSO. […] The data are expressed as the average IC50 from the assays.

The source of these data is patent US11564923B2, “Compounds and pharmaceutical compositions thereof for the treatment of inflammatory disorders” (Galapagos NV, priority 2017, dated 2023).

Molecules are shown by their SMILES.

T3 sequence (P23458 866-1154): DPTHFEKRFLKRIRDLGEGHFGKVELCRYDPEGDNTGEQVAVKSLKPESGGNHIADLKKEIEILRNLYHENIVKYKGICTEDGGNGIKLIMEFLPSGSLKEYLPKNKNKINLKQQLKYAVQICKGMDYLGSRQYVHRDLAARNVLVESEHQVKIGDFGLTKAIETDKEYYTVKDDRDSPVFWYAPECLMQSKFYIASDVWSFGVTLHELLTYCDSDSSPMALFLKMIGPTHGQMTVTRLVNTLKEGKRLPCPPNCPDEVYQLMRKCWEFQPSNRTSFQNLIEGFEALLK
T2 sequence (O60674 808-1132): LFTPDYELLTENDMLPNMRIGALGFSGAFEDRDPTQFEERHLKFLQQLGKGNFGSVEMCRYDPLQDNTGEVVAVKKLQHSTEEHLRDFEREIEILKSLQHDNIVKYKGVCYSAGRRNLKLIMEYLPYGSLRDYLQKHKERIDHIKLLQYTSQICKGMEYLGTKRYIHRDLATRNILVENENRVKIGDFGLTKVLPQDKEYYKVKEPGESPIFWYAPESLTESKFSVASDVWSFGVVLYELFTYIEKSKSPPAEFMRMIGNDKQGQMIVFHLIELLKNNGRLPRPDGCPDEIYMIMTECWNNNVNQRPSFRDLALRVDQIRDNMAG
Recombinant human JAK3 catalytic domain (amino acids 781-1124), sequence (P52333 781-1124): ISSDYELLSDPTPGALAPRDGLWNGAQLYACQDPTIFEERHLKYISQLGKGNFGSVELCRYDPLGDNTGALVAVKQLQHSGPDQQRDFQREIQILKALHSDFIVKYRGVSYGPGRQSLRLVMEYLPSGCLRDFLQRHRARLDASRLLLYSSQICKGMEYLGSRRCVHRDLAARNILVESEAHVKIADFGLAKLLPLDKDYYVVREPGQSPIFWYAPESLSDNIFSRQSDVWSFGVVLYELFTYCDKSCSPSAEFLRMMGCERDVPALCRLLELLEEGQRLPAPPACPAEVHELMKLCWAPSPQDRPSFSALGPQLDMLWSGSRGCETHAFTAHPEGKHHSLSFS

Turning to `Cc1cc(C#N)ncc1Oc1cc(Nc2ccc(N3CCC(CO)CC3)cn2)c2ncn(C)c2n1` [Compound 184, 5-[7-[[5-[4-(hydroxymethyl)-1-piperidyl]-2-pyridyl]amino]-3-methyl-imidazo[4,5-b]pyridin-5-yl]oxy-4-methyl-pyridine-2-carbonitrile], the IC50 – broadly, the point on the concentration scale where inhibition reaches its midpoint – was determined as 6.42 nM in assay [1], 22.1 nM in assay [2], 487 nM in assay [3] and 59 nM in assay [4].
The corresponding values for `CCNC(=O)c1ccc(Nc2cc(Oc3cnc(C#N)cc3C)nc3c2ncn3C)nc1C` [Compound 78, 6-[[5-[(6-cyano-4-methyl-3-pyridyl)oxy]-3-methyl-imidazo[4,5-b]pyridin-7-yl]amino]-N-ethyl-2-methyl-pyridine-3-carboxamide] are 9.69 nM, 31.6 nM, 737 nM and 60.2 nM.
The corresponding values for `Cn1cnc2c(Nc3cc(N)ncn3)cc(NC(C3CC3)C3CC3)nc21` [Compound 95, N7-(6-aminopyrimidin-4-yl)-N5-(dicyclopropylmethyl)-3-methyl-imidazo[4,5-b]pyridine-5,7-diamine] are 26.3 nM, 38 nM, 177 nM and 250 nM.
The corresponding values for `Cc1cc(C#N)ncc1Oc1cc(Nc2ccc(C(N(C)C)C(F)(F)F)cn2)c2ncn(C)c2n1` (stereo not shown) [Compound 79] are 3.57 nM, 5.58 nM, 573 nM and 18.5 nM.
Consider `Cc1cc(C#N)ncc1Oc1cc(Nc2ccc(N3CCC(N(C)C)C3)cn2)c2ncn(C)c2n1` (stereo not shown) [Compound 182, 5-[7-[[5-[3-(dimethylamino)pyrrolidin-1-yl]-2-pyridyl]amino]-3-methyl-imidazo[4,5-b]pyridin-5-yl]oxy-4-methyl-pyridine-2-carbonitrile], for which the IC50 was determined as 17.2 nM in assay [1], 76.4 nM in assay [2], 721 nM in assay [3] and 165 nM in assay [4].
Consider `Cc1cc(C#N)ncc1Nc1cc(Nc2ccc(C(=O)N(C)C)nn2)c2ncn(C)c2n1` [Compound 76, 6-[[5-[(6-cyano-4-methyl-3-pyridyl)amino]-3-methyl-imidazo[4,5-b]pyridin-7-yl]amino]-N,N-dimethyl-pyridazine-3-carboxamide], for which the IC50 in assay [1] stood at 6.71 nM; in assay [2], 19.9 nM; in assay [3] it was 579 nM; in assay [4], 200 nM.
The corresponding values for `CN(c1cc(Nc2cc(N)ncn2)c2ncn(C)c2n1)[C@@H]1CCC[C@@H](C#N)C1` (racemic) [Compound 13, (±)-(1R,3R)-3-{[7-(6-Amino-pyrimidin-4-ylamino)-3-methyl-3H-imidazo[4,5-b]pyridin-5-yl]-methyl-amino}-cyclohexanecarbonitrile] are 1.92 nM, 3.16 nM, 9.66 nM and 24.4 nM.
The corresponding values for `Cc1cc(C#N)ncc1Oc1cc(Nc2ccc(C(=O)NC3CCC(O)C3)cn2)c2ncn(C)c2n1` (racemic) [Compound 139, 6-[[5-(6-cyano-4-methylpyridin-3-yl)oxy-3-methylimidazo[4,5-b]pyridin-7-yl]amino]-N-[rac-(1R,3R)-3-hydroxycyclopentyl]pyridine-3-carboxamide] are 5.64 nM, 23.7 nM, 673 nM and 33.8 nM.
The corresponding values for `COCCCNc1cc(Nc2cc(Oc3cnc(C#N)cc3C)nc3c2ncn3C)ncn1` [Compound 32, 5-{7-[6-(3-Methoxy-propylamino)-pyrimidin-4-ylamino]-3-methyl-3H-imidazo[4,5-b]pyridin-5-yloxy}-4-methyl-pyridine-2-carbonitrile] are 6.08 nM, 26.2 nM, 601 nM and 117 nM.
As to `CCNC(=O)c1cnc(Nc2cc(Oc3cnc(C#N)cc3C)nc3c2ncn3C)cc1C` [Compound 64, 6-[[5-[(6-cyano-4-methyl-3-pyridyl)oxy]-3-methyl-imidazo[4,5-b]pyridin-7-yl]amino]-N-ethyl-4-methyl-pyridine-3-carboxamide], the IC50 in assay [1] was determined as 51.6 nM; in assay [2], 214 nM; in assay [3] it was 3220 nM; in assay [4], 343 nM.
The corresponding values for `Cc1cc(C#N)ncc1Oc1cc(Nc2ccc(C(=O)NCCN(C)C)cn2)c2ncn(C)c2n1` [Compound 99, 6-[[5-[(6-cyano-4-methyl-3-pyridyl)oxy]-3-methyl-imidazo[4,5-b]pyridin-7-yl]amino]-N-(2-dimethylaminoethyl)pyridine-3-carboxamide] are 17.8 nM, 51.1 nM, 916 nM and 111 nM.
The corresponding values for `Cc1cc(C#N)ncc1Oc1cc(Nc2ccc(N(C)C)cn2)c2ncn(C)c2n1` [Compound 185, 5-[7-[[5-(dimethylamino)-2-pyridyl]amino]-3-methyl-imidazo[4,5-b]pyridin-5-yl]oxy-4-methyl-pyridine-2-carbonitrile] are 17 nM, 41.4 nM, 871 nM and 93.6 nM.
Regarding `Cc1cc(C#N)ncc1Oc1cc(Nc2cc(NCC3COCCO3)ncn2)c2ncn(C)c2n1` (stereo not shown) [Compound 35, 5-(7-{6-[([1,4]Dioxan-2-ylmethyl)-amino]-pyrimidin-4-ylamino}-3-methyl-3H-imidazo[4,5-b]pyridin-5-yloxy)-4-methyl-pyridine-2-carbonitrile], the IC50 in assay [1] worked out at 2.3 nM; in assay [2], 20.4 nM; in assay [3] it was 452 nM; in assay [4] it was 52.4 nM.
The corresponding values for `COCCN(C)c1ccc(Nc2cc(Oc3cnc(C#N)cc3C)nc3c2ncn3C)nc1` [Compound 183, 5-[7-[[5-[2-methoxyethyl(methyl)amino]-2-pyridyl]amino]-3-methyl-imidazo[4,5-b]pyridin-5-yl]oxy-4-methyl-pyridine-2-carbonitrile] are 12.9 nM, 41.2 nM, 561 nM and 95.4 nM.
For `CC(Nc1cc(Nc2cc(N)ncn2)c2ncn(C)c2n1)C1CCC1` (stereo not shown) [Compound 94, N7-(6-aminopyrimidin-4-yl)-N5-(1-cyclobutylethyl)-3-methyl-imidazo[4,5-b]pyridine-5,7-diamine], the IC50 in assay [1] is 30.7 nM; in assay [2], 39.7 nM; in assay [3] it was 87.1 nM; in assay [4], 217 nM.
On to `Cc1cc(C#N)ncc1Oc1cc(Nc2cc(NCCCO)ncn2)c2ncn(C)c2n1` [Compound 34, 5-{7-[6-(3-Hydroxy-propylamino)-pyrimidin-4-ylamino]-3-methyl-3H-imidazo[4,5-b]pyridin-5-yloxy}-4-methyl-pyridine-2-carbonitrile], for which the IC50 was determined as 5.49 nM in assay [1], 23.4 nM in assay [2], 1110 nM in assay [3] and 101 nM in assay [4].
